Test results reported in patent US7179954B1, “Isolated nucleic acids coding for a nuclear base transporter and uses thereof” (Carnegie Insitution of Washington, priority 1999, dated 2007).

How the values were obtained:
[1] = target: T1, PUP1 nuclear base transporter (Arabidopsis thaliana, UniProt Q9FZ96, S63G); assay type: cell-based; conditions: for Transport of cytokinin by PUP1: 3H-labelled cytokinins
T1 construct: The PUP1 protein expressed by the yeast strain MG887ura3^−::pFL61-PUP1; expressed in transfected cells; host or cells: Saccharomyces cerevisiae MG887ura3- (fcy2), plasmid pFL61-PUP1
Experimental: The uptake was set temporarily at a concentration of 100 μM trans-zeatin. In this case PUP1 was expressed under control of the yeast ATPase promoter PMA1 in the vector pDR195 (Rentsch et al., 1995, FEBS Left. 370, […]) in the mutant MG877ura3^−::(FCY). The empty vector (FCY2pDR195) served as control.
(§1) For measuring the rate of uptake the yeast strains MG887ura3^−::pFL61, MG887ura3^−::pFL61-PUP1 and their original strain Σ1278b (Dubois & Grenson, 1979, Mol. Gen. Genet. 175, 67–76) were cultured in complete medium (YPD) without uracil and with 2% glucose as carbon source up to an OD600 of 0.6 at 28° C. The cells were harvested at 3000 g, washed twice with water and brought to an OD600 of 12 with sodium phosphate buffer (100 mM, pH 4.5), 1% glucose. The cell suspension was stored in 100 μl portions on ice up to the beginning of the uptake measurements. Before the start of the uptake measurements the cells were pre-incubated at 30° C. for 2 minutes. The reaction was then started, by which 100 μl of radioactively labelled substrate solution was added to 100 μl cell suspension. The reaction mixture was incubated at 30° C. and after 30, 60, 120 and 180 seconds in each case 50 μl of suspension was withdrawn and placed in 4 ml of ice-cold water (in measurements over 180 seconds more cell suspension and substrate solution were correspondingly added). The cells were absorbed on to glass fibre filters and washed with 4 ml of ice-cold water. The radioactivity on the filters was finally ascertained in a liquid scintillation counter.
The uptake experiments were carried out with ^3H-labelled zeatine in MG887ura3^− as for adenine. To start the reaction 87.3Bq/μl of the radioactive substrate was added to a total concentration of 100 μM trans-zeatine.

[2] = target: T1, PUP1 nuclear base transporter; assay: Influence of inhibitors on PUP1-mediated adenine or cytosine uptake in yeast strain MG887ura3-::pFL61-PUP1; assay type: cell-based; conditions: for Relative adenine uptake / Relative cytosine uptake: added five minutes before measurement, without inhibitor = 100; for Effect on PUP1-mediated adenine or cytosine uptake: statement in words
Experimental: as §1
(§2) Substrate solution: For the substrate solution what is concerned is a 100 mM sodium phosphate buffer pH 4.5 with 1% glucose and 9.25 Bq/μl of radioactively labelled substrate (25–100 μM [^14C] adenine or [^14C] cytosine). In addition the substrate solution contains the unlabelled substrate, possible inhibitors and competitors in double end-concentration. For estimation of the optimum pH the pH value of the sodium phosphate buffer is also changed. When the influence of glucose on the uptake rate is measured neither the cell suspension nor the substrate solution contains glucose. Glucose is only added after starting the uptake measurements at the commencement of measuring at an end-concentration of 1%.
The influence of various inhibitors on the adenine or cytosine uptake mediated by the PUP1 nuclear base transporter in the yeast strain MG887ura3^−::pFL61-PUP1 is indicated in Table 2. The inhibitors were added to the cells five minutes before beginning the measurements. […] This may be taken as a clear indication of a secondarily active proton-associated uptake mechanism.

[3] = target: T2, PUP1 nuclear base transporter (Arabidopsis thaliana, UniProt Q9FZ96); assay: Uptake of radioactively labelled adenine and cytosine by yeast strain MG887ura3-::pFL61-PUP1; assay type: cell-based; conditions: initial concentration medium 200 μM; intracellular, cell volume estimated as four times the dry weight
T2 construct: The PUP1 protein expressed by the yeast strain MG887ura3^−::pFL61-PUP1; expressed in transfected cells; host or cells: Saccharomyces cerevisiae MG887ura3- (fcy2), plasmid pFL61-PUP1
Experimental: as §1, §2
(§3) In Table 1 the uptake of radioactively labelled adenine and cytosine mediated by the PUP1 nuclear base transporter is indicated by the yeast strain MG887ura3^−::pFL61-PUP1. For calculation of the intracellular concentration the cell volume is estimated as four times the dry weight (Ninnemann et al., 1994, EMBO J. 15, 3464–3471). The uptake occurs against a concentration gradient.

[4] = target: T1, PUP1 nuclear base transporter; assay: as above; assay type: cell-based
Experimental: as §1, §2, §3

[5] = target: T3, PUP1 (Arabidopsis thaliana, UniProt Q9FZ96, S63G); assay: Growth of yeast strain DM734-284D on adenosine minimal medium (adenosine transport complementation); assay type: cell-based; design: PUP1 was expressed under control of the yeast ATPase promoter PMA1 in the vector pDR195; expressed in transfected cells; host or cells: Saccharomyces cerevisiae MG887ura3- (A5, A8) or DM734-284D (A7), construct pDR195PUP1; conditions: minimal medium with 150 μM adenosine instead of adenine; after 3 days
Source text: The Saccharomyces cerevisiae strain DM734-284D (genotype: ade8-18, ade2-1, arg-4-16, leu2-17, trp1-1, lys2, ura3: Yeast Genetic Stock Center) was used for growth studies. This yeast strain owing to mutations at the gene loci ade 8-18 and ade 2-1 is not itself in a position to synthesize adenine. […] This adenine is taken up via the purine/cytosine transporter FCY2 of the yeast. The DM734-284D strain is however still in a position to grow in medium containing adenosine instead of adenine, provided adenosine transport in the yeast cells is mediated by an adenosine transporter inserted by genetic engineering.
In order to check whether PUP1 mediates the transport of adenosine, the strain DM734-284D was transformed according to the standard procedure for yeast transformation (Dohmen et al., 1991, Yeast 7,691–692) with the constructs pDR195PUP1 and pDR195 as controls (Rentsch et al., 1995, FEBS Lett. 370, […]). For final checking of the transformation the early stages of transformation were plated on minimal medium containing 150 μM adenine and the amino acids arginine, leucine, tryptophane (each 60 mg/l) and lysine (70 mg/l) necessary for growth. Uracil served as transformation marker. Three independent positive clones of the control and the PUP1-expressing clone were plated on minimal medium containing 150 μM adenosine instead of 150 μM adenine.

[6] = target: T3, PUP1; assay: Sensitivity of yeast MG887ura3- clones to caffeine-containing minimal medium; assay type: cell-based; design: PUP1 was expressed under control of the yeast ATPase promoter PMA1 in the vector pDR195; expressed in transfected cells; host or cells: Saccharomyces cerevisiae MG887ura3- (A5, A8) or DM734-284D (A7), construct pDR195PUP1; conditions: minimal medium plates, 6 days at 28° C.
Experimental: In order to check whether PUP1 mediates the transport of caffeine, the sensitivity of the Saccharomyces cerevisiae strain MG887ura3^− to caffeine-containing minimal medium was investigated. At certain concentrations caffeine is toxic to yeast (Bard et al., J. Bacteriol. 141, 999–1002), leading to slower growth or death of the yeast.
For this test various caffeine concentrations between 0 and 1.5% were put into minimal medium. Yeast clones grown in liquid minimal medium for 16 hours were spread out on the corresponding plates and incubated for 6 days at 28° C.

[7] = target: T1, PUP1 nuclear base transporter; assay: cell-based
Experimental: as §1

T3 sequence (Q9FZ96 whole entry S63G): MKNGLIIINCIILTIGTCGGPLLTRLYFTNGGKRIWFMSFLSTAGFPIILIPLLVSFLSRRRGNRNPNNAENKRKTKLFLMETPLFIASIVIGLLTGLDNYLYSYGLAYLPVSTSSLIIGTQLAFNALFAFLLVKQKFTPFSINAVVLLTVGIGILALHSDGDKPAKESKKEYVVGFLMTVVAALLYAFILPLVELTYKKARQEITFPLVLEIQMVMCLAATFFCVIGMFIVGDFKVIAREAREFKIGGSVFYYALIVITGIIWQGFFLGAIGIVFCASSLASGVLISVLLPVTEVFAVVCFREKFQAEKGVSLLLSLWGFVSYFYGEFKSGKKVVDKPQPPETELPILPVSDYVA
T1 sequence (Q9FZ96 whole entry S63G): as above
T2 sequence (Q9FZ96 whole entry S63G): as above

With 2-isopentenyl adenine the “Transport of cytokinin by PUP1” value [1] was “can also transport cytokinins”.

In the case of O=[N+]([O-])c1ccc(O)c([N+](=O)[O-])c1 [2,4-DNP, 2,4-dinitrophenol], the Relative adenine uptake ([2]; 100 μM inhibitor) is reported as 54%, the Relative cytosine uptake ([2]; 100 μM inhibitor) is reported as 58% and the “Effect on PUP1-mediated adenine or cytosine uptake” value (“Effect” below) [2] is reported as “block the uptake”.

In the case of N#CC(C#N)=NNc1cccc(Cl)c1 [CCCP, carbonyl-cyanide-m-chlorphenylhydrazone], the Relative adenine uptake ([2]; 100 μM inhibitor) is reported as 13%, the Relative cytosine uptake ([2]; 100 μM inhibitor) is reported as 20% and the “Effect” value [2] is reported as “block the uptake”.

For Nc1cc[nH]c(=O)n1 [Cytosine, cytosine], the “End conc Cells” value [3] was 2660 µM, the Enrichment factor ([4]; cells versus medium, initial concentration medium 200 μM) was 18 and the “End conc. Medium” value ([4]; initial concentration medium 200 μM, yeast strain MG887ura3-::pFL61-PUP1) was 145 µM. For the same compound, the “pH dependence of PUP1-mediated uptake” value ([4]; yeast strain MG887ura3-::pFL61-PUP1, FIG. 2, substrate 100 μM) was “dependent on the pH level” and the “Glucose dependence of PUP1-mediated uptake” value ([4]; yeast strain MG887ura3-::pFL61-PUP1, FIG. 3, glucose 1%) was “glucose-dependent”.

With C(=NC1CCCCC1)=NC1CCCCC1 [DCCD] the Relative adenine uptake ([2]; 100 μM inhibitor) was 47% and the Relative cytosine uptake ([2]; 100 μM inhibitor) was 55%.

In the case of Nc1ncnc2c1ncn2[C@@H]1O[C@H](CO)[C@@H](O)[C@H]1O [adenosine], the “Growth of PUP1-expressing clone” value [5] is reported as “Definite growth” and the “Growth of clone transformed with the vector pDR195 (control)” value [5] is reported as “no growth”.

In the case of Cn1c(=O)c2c(ncn2C)n(C)c1=O [caffeine], the “Caffeine concentration from which PUP1-expressing yeasts displayed distinctly slowed-down growth compared to control and PUP2-expressing strain” value [6] is reported as ≥ 0.2%.

Work on C[C@@H]1C[C@@H]([C@H](O)CC2CC(=O)NC(=O)C2)C(=O)[C@@H](C)C1 [cycloheximide] yielded a Relative adenine uptake ([2]; 10 μg/ml inhibitor) of 95% and a Relative cytosine uptake ([2]; 10 μg/ml inhibitor) of 97%.

With CC/C(=C(/CC)c1ccc(O)cc1)c1ccc(O)cc1 [diethylstilboestrol] the Relative adenine uptake ([2]; 100 μM inhibitor) was 4%, the Relative cytosine uptake ([2]; 100 μM inhibitor) was 8% and the “Effect” value [2] was “block the uptake”.

c1coc(CNc2ncnc3[nH]cnc23)c1 [kinetin] gave a Ki [7] of 35 µM.

For C/C(=C\CNc1ncnc2[nH]cnc12)CO [zeatin], the Ki [7] was 30 µM, the “Increased uptake of radioactively labelled trans-zeatine, PUP1-expressing clone versus control strain (pDR195)” value ([1]; 100 μM trans-zeatine, three independent experiments) was 70 times and the “Transport of cytokinin by PUP1” value [1] was “can also transport cytokinins”.
